We go through 3 compounds from PMC3160198 (The Journal of neuroscience : the official journal of the …, 2011).

Experiment [1] deals with homomeric ρ1 GABAC receptor (GABAρ1) (Homo sapiens, UniProt P24046). Put plainly: two-electrode voltage clamp in Xenopus oocytes, potentiation of GABA current. It is filed as cell-based. The following applies: 3000 µM, GABA 0.3 μM, pH 7.0, -70 mV. (In general: In two-electrode clamp one electrode senses voltage and the other passes current.)
The target of another experiment is α1β2 GABAA receptor (Rattus norvegicus, UniProt P62813+P63138). Nature of the experiment: whole-cell patch clamp in HEK […] cells, potentiation of GABA current. The following applies: GABA 1 μM (EC50); pH 7.4; -60 mV; positive modulator. It is filed as cell-based. (In general: In patch-clamp work, channel activity is measured electrically.)
Sequence of α1β2 GABAA receptor (P62813 28-455): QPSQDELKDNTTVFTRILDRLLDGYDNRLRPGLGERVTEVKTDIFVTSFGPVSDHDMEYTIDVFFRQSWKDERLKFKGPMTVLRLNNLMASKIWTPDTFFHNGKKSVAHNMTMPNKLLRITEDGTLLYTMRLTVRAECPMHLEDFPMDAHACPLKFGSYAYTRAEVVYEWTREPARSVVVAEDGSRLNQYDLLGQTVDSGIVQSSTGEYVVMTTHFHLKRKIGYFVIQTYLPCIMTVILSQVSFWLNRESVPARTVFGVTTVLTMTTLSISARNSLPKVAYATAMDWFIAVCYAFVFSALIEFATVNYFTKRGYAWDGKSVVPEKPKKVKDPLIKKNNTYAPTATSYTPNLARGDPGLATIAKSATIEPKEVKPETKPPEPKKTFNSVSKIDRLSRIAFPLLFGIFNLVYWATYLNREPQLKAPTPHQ
Sequence of α1β2 GABAA receptor (P63138 26-474): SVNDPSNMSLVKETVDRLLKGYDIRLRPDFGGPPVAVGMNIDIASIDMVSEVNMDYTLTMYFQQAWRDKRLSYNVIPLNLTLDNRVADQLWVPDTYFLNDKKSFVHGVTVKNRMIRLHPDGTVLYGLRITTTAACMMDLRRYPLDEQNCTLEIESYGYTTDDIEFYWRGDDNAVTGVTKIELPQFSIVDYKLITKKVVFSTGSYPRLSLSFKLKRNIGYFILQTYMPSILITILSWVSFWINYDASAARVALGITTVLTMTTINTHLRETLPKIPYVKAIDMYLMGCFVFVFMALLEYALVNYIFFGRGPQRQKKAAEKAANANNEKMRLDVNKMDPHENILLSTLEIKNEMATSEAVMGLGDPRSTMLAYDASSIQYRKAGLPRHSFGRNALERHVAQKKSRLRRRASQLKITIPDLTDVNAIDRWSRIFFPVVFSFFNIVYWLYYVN

Sequence of homomeric ρ1 GABAC receptor (GABAρ1) (P24046 22-479): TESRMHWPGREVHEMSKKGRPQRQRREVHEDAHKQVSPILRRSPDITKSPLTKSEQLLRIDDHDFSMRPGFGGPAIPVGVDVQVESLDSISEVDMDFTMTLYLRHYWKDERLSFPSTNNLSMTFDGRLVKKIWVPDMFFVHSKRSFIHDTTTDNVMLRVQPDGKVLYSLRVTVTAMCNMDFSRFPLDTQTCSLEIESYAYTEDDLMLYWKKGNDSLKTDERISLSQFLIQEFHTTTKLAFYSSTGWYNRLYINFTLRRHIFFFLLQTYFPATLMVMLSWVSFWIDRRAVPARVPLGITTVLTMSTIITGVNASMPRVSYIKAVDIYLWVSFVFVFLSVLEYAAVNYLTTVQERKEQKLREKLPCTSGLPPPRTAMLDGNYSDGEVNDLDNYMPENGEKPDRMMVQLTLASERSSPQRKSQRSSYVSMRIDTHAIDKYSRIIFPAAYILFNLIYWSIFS

Turning to `O=C1O[C@H]([C@@H](O)CO)C(O)=C1O` [Asc, Ascorbic acid], the “% Potentiation” value in experiment [1] (positive allosteric modulator) is 139.5 ± 87.5%. Further, the “% potentiation at 10 mM” value on α1β2 GABAA receptor is ~ 600%.

For `O=C1O[C@H]([C@H](O)CO)C(O)=C1O` [D-isoAsc, D-isoascorbic acid], the “% Potentiation” value in experiment [1] (positive allosteric modulator) came to 33.5 ± 12.5%.

As for `O=C1O[C@H]([C@@H](O)CO)C(=O)C1=O` [DHA, L-dehydroascorbic acid], in experiment [1], the “% Potentiation” value is reported as -1.6 ± 4.2%.
